# Measured values taken from PMC12320245 (International Journal of Biological Sciences, 2025).
# Key:
# hippocampus of TBI rats = assay: Controlled cortical impact TBI: hippocampal immunofluorescence; format: in vivo, rat
# Method: (§1) This study used male Sprague-Dawley rats weighing 300-350 g and aged 8 weeks, obtained from DBL Co. (Chungcheongbuk-do, Republic of Korea). The rats were housed in a controlled environment with a temperature of 20 ± 2 °C, a relative humidity of 55 ± 5%, and a 12-hour light/dark cycle. They were provided ad libitum access to food and water. To minimize stress associated with transportation, animals underwent a one-week acclimatization period before the start of the experiments. All experimental procedures were conducted in compliance with the guidelines of the National Institutes of Health for the care and use of laboratory animals and were approved by the Hallym University Institutional Animal Care and Use Committee (protocol # Hallym 2022-23, approved on July 15, 2022). This manuscript follows the principles outlined in the Animal research: reporting in vivo experiments (ARRIVE) guidelines.
# (§2) A controlled cortical impact (CCI) model was used to induce TBI in rats. Animals were anesthetized with 1-1.5% isoflurane in a 30:70 oxygen-to-nitrous oxide mixture and securely positioned in a stereotaxic frame. A 3 mm craniotomy was performed using a portable drill at a site 2.8 mm lateral to the midline and 3.0 mm posterior to Bregma. TBI was induced using an Impact One™ Stereotaxic Impactor (Leica Biosystems) equipped with a 3 mm flat-tip, set to deliver an impact at a velocity of 5 m/s and a depth of 3 mm. Throughout the procedure, body temperature was maintained at 36-37.5°C using a homeothermic blanket system to prevent hypothermia. […] At designated time points (3 hours, 24 hours, or 2 weeks post-injury), animals were euthanized via transcardial perfusion with saline, followed by 4% paraformaldehyde (PFA). Brains were post-fixed in 4% PFA for 1 hour, cryoprotected in 30% sucrose, and sectioned at a 30 μm thickness using a cryostat microtome (CM1850; Leica, Wetzlar, Germany). Brain sections were stored in cryoprotectant solution at 4°C until further analysis.
# Brain tissues were initially treated with 1.2% hydrogen peroxide at room temperature for 15 minutes to block endogenous peroxidase activity. Following this step, the tissues were washed three times in PBS for 10 minutes each. The tissues and fixed primary neurons were incubated overnight at 4°C with primary antibodies diluted in antibody diluent. […]. After incubation with primary antibodies, tissues were washed in PBS and incubated for 2 hours at room temperature on a shaker with fluorescent-conjugated secondary antibodies (1:250, Invitrogen). All samples were counterstained with DAPI (1:1000, Invitrogen) to visualize cell nuclei. The stained tissues were mounted on gelatin-coated slides, air-dried, and coverslipped using DPX mounting medium. To evaluate the fluorescent signals of labeled proteins, observations were performed using a Zeiss LSM 710 confocal microscope (Carl Zeiss) with sequential scanning mode for DAPI and Alexa 488 and 594. Stacks of images (1024 × 1024 pixels) from consecutive slices of 0.5-0.8 μm in thickness were obtained by averaging fifteen scans per slice, processed using ZEN 2 (blue edition, Carl Zeiss).
# TBI rats = assay: Controlled cortical impact TBI: Morris water maze; format: in vivo, rat; details: vs TBI-vehicle
# Method: as §1, §2
# The MWM is a well-established behavioral test used to assess cognitive function in rodents. […] The following parameters were recorded during the training sessions: 1) escape latency (time taken to reach the platform), 2) distance traveled to locate the platform, and 3) the number of target crossings (times the platform location was crossed). […] The time spent in the target quadrant (where the platform had been located during training) and the number of crossings over the platform location were recorded. Behavioral data, including escape latency, distance traveled, target crossings, and time spent in the target quadrant, were tracked and analyzed using smart video-tracking software (Panlab, Carrer de l'Energia, Spain).
# [1] = hippocampal regions, 24 hours after TBI
# [2] = hippocampus, 24 hours after TBI
compound,measurement,setting,value
"CC(C)c1ccc2oc3nc(N)c(C(=O)O)cc3c(=O)c2c1 [AMX, amlexanox]",hippocampal PDE4 expression (immunofluorescence),hippocampus of TBI rats; 3 hours post-TBI,markedly reduced PDE4 expression
same,4HNE staining (lipid peroxidation),hippocampus of TBI rats; [1],significantly reduced 4HNE staining
same,CD86 staining (M1 polarization),hippocampus of TBI rats; [1],decreased Iba-1 and CD86 staining
same,Iba-1 staining (microglial activation),hippocampus of TBI rats; [1],decreased Iba-1 and CD86 staining
same,p-p38 levels (immunofluorescence),"hippocampus of TBI rats; hippocampal regions, 24 hours post-TBI, vs TBI-vehicle",significantly reduced p-p38 levels
same,C3 intensity,hippocampus of TBI rats; [2],lower GFAP and C3 intensity
same,GFAP intensity (astrocytic activation),hippocampus of TBI rats; [2],lower GFAP and C3 intensity
same,MWM distance to the hidden platform,TBI rats; days 8-12 post-TBI,reduced target distances
same,MWM escape latency,TBI rats; days 8-12 post-TBI,shorter escape latency
same,MWM platform crossings,TBI rats; probe trial,more frequent platform crossings
same,MWM time spent in the target quadrant,TBI rats; probe trial,increased time spent in the target quadrant
